The text below walks through data of ChEMBL document CHEMBL6182937, “Design, Synthesis, and Anti-ischemic Stroke Activity Evaluation of Novel GSNOR Inhibitors” (J Med Chem, 2025).

The nature of data set [1]: Half life in Sprague-Dawley rat at 10 mg/kg, iv by LC-MS/MS analysis. Type of data set: ADME, organism-based. As to conditions: in vivo.
Data set [2] in a line: AUC (0 to t) in Sprague-Dawley rat at 10 mg/kg, iv by LC-MS/MS analysis. The class given is ADME, organism-based. As to conditions: in vivo.
Data set [3] can be described thus: Metabolic stability in rat liver microsomes assessed as intrinsic clearance preincubated for 5 mins followed by NADPH addition and measured up to 60 mins by LC-MS/MS analysis. The settings on record: time < 65 min, read-out: CLH. Type of data set: ADME, Microsome.
Data set [4] is described as follows: Stability in rat plasma assessed as half life at 1 uM incubated up to 120 mins by LC-MS/MS analysis. The class given is ADME, cell-free.
Data set [5] in a line: Half life in male C57BL/6 mouse at 10 mg/kg, po by LC-MS/MS analysis. The class given is ADME, organism-based. As to conditions: in vivo.
Data set [6] concerns Rattus norvegicus. The data set can be described thus: Neuroprotective activity against tMCAO- induced brain injury in Sprague-Dawley rat model assessed as reduction in neurological score at 5 mg/kg, iv measured up to 24 hrs Longa scale analysis. The class given is functional, organism-based.
Data set [7] in a line: MRT (0 to t) in Sprague-Dawley rat at 10 mg/kg, iv by LC-MS/MS analysis. Type of data set: ADME, organism-based. The settings on record: in vivo.
The subject of data set [8] is Rattus norvegicus. The data set can be described thus: Neuroprotective activity against tMCAO- induced brain injury in Sprague-Dawley rat model assessed as reduction in infarct volume at 10 mg/kg, iv measured up to 24 hrs by TTC staining based analysis (reference value: 36.35 +/- 4.05%). Type of data set: functional. Set-up: scale not given: the % may be the effect or the level left.

Data set [9] is described as follows: Tmax in Sprague-Dawley rat at 10 mg/kg, iv by LC-MS/MS analysis. The settings on record: in vivo. The class given is ADME, organism-based.
Data set [10] is described as follows: MRT (0 to t) in male C57BL/6 mouse at 2 mg/kg, iv by LC-MS/MS analysis. The class given is ADME, organism-based. As to conditions: in vivo.
The test system of data set [11] is Rattus norvegicus. The data set can be described thus: Neuroprotective activity against tMCAO- induced brain injury in Sprague-Dawley rat model assessed as reduction in neurological score at 10 mg/kg, iv measured up to 24 hrs Longa scale analysis. Type of data set: functional, organism-based.
The subject of data set [12] is SH-SY5Y. The data set can be described thus: Cytotoxicity against human SH-SY5Y cells up to 40 uM incubated for 24 hrs by CCK-8 assay. The class given is functional, cell-based. Background: Tetrazolium assays rely on reduction of a dye to a coloured formazan, in cell work by metabolically active cells.
Data set [13] can be described thus: Permeability of compound across apical to basal side in human Caco-2 cells at 10 uM incubated for 120 mins by LC-MS/MS analysis. As to conditions: caco-2, 2 h. The class given is ADME, cell-based.
A short description of data set [14]: MRT (0 to t) in male C57BL/6 mouse at 10 mg/kg, po by LC-MS/MS analysis. The settings on record: in vivo. Type of data set: ADME, organism-based.
The test system of data set [15] is Rattus norvegicus. The data set can be described thus: Neuroprotective activity against tMCAO- induced brain injury in Sprague-Dawley rat model assessed as upregulation of clstn1 level in brain at 5 mg/kg, iv measured after 24 hrs by LC-MS/MS analysis. The class given is functional, organism-based.
Data set [16] can be described thus: Clearance in Sprague-Dawley rat at 10 mg/kg, iv by LC-MS/MS analysis. The settings on record: in vivo. Type of data set: ADME, organism-based.
Data set [17] concerns Rattus norvegicus. The data set can be described thus: Neuroprotective activity against tMCAO- induced brain injury in Sprague-Dawley rat model assessed as reduction in infarct volume at 5 mg/kg, iv measured up to 24 hrs by TTC staining based analysis (reference value: 36.35 +/- 4.05%). Type of data set: functional. Set-up: scale not given: the % may be the effect or the level left.

The nature of data set [18]: Half life in male C57BL/6 mouse at 2 mg/kg, iv by LC-MS/MS analysis. Type of data set: ADME, organism-based. As to conditions: in vivo.
Data set [19] has as its system Rattus norvegicus. The data set can be described thus: Neuroprotective activity against tMCAO- induced brain injury in Sprague-Dawley rat model assessed as […] at 5 mg/kg, iv measured up to 24 hrs. Type of data set: functional, organism-based.
Data set [20] is described as follows: Oral bioavailability in male C57BL/6 mouse at 10 mg/kg by LC-MS/MS analysis. Type of data set: ADME, organism-based. The settings on record: in vivo.
Data set [21] can be described thus: Cmax in Sprague-Dawley rat at 10 mg/kg, iv by LC-MS/MS analysis. As to conditions: in vivo. Type of data set: ADME, organism-based.
In data set [22] the test system is SH-SY5Y. The data set can be described thus: Neuroprotective activity against OGD/R-induced human […] cell injury model assessed as cell survival measured for 24 hrs by CCK-8 assay. The class given is functional, cell-based. As to conditions: dose 1-10 µM.
Data set [23] in a line: Metabolic stability in rat liver microsomes assessed as half life preincubated for 5 mins followed by NADPH addition and measured up to 60 mins by LC-MS/MS analysis. Type of data set: ADME, Microsome. As to conditions: time < 65 min.
The species named for data set [24] is Homo sapiens. The data set can be described thus: Inhibition of GSNOR (unknown origin) at 1 uM in presence of NADH incubated for 10 mins by microplate reader analysis relative to control.
Data set [25] has as its system SH-SY5Y. The data set can be described thus: Neuroprotective activity against OGD/R-induced human […] cell injury model assessed as increase in cell viability at 10 uM measured for 24 hrs by CCK-8 assay. Type of data set: functional, cell-based.
Data set [26] can be described thus: Inhibition of GSNOR (unknown origin) in presence of NADH incubated for 10 mins by microplate reader analysis. Set-up: species or system Homo sapiens.
Data set [27] deals with CYP3A4 (Homo sapiens, UniProt P08684). The data set can be described thus: Inhibition of human CYP3A4 in human liver microsome at 10 uM relative to control. As to conditions: human liver microsomes. Type of data set: ADME. (In general: Microsomes from liver hold many membrane-bound enzymes, among them those of drug oxidation.)
Sequence of CYP3A4 (P08684 whole entry): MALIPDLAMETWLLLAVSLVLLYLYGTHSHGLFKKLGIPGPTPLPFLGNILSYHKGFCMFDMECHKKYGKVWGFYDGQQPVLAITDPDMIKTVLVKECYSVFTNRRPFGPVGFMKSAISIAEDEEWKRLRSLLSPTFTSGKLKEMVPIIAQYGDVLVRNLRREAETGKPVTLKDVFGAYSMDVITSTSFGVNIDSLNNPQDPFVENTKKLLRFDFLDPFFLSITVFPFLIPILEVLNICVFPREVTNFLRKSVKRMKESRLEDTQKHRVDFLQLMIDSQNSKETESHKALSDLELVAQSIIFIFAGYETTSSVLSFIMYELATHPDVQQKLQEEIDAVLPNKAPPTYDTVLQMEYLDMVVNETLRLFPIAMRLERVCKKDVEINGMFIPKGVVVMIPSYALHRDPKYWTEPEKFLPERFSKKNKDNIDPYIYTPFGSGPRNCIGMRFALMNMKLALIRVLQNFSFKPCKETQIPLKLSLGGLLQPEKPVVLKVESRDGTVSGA
For data set [28], the target named is CYP2D6 (Homo sapiens, UniProt P10635). The data set can be described thus: Inhibition of human CYP2D6 in human liver microsome at 10 uM relative to control. Type of data set: ADME. As to conditions: human liver microsomes.
Sequence of CYP2D6 (P10635 whole entry): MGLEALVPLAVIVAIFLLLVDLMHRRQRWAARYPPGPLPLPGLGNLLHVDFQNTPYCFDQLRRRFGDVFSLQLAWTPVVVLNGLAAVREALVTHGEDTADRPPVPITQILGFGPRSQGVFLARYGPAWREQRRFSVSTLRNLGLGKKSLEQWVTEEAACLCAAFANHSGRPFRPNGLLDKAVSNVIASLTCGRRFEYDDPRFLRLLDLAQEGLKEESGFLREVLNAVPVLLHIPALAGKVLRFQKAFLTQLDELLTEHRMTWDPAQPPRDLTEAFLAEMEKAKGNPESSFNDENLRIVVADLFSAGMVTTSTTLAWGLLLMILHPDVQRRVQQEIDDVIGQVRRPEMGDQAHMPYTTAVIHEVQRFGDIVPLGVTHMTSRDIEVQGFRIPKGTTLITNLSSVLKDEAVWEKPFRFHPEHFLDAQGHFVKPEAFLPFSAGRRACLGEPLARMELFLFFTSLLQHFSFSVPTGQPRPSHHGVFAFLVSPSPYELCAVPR
The target in data set [29] is T1, CYP1A2 (Homo sapiens, UniProt P05177).
T1 sequence (P05177 whole entry): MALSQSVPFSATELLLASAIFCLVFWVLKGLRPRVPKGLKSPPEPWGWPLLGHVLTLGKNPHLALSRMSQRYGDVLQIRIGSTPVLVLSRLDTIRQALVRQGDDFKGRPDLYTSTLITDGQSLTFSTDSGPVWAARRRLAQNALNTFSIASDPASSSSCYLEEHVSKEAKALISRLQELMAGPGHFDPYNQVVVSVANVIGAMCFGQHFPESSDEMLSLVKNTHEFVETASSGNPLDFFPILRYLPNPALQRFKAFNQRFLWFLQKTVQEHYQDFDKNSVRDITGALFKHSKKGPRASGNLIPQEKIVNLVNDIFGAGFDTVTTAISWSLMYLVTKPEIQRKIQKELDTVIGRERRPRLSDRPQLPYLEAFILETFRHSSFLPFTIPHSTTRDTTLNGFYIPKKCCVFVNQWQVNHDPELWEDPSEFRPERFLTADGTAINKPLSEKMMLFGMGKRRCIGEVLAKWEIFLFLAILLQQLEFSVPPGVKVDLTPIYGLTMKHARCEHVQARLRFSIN
The data set can be described thus: Inhibition of human CYP1A2 in human liver microsome at 10 uM relative to control. As to conditions: human liver microsomes. Type of data set: ADME.

The target of data set [30] is CYP2C19 (Homo sapiens, UniProt P33261). The data set can be described thus: Inhibition of human CYP2C19 in human liver microsome at 10 uM relative to control. The class given is ADME. As to conditions: human liver microsomes.
Sequence of CYP2C19 (P33261 whole entry): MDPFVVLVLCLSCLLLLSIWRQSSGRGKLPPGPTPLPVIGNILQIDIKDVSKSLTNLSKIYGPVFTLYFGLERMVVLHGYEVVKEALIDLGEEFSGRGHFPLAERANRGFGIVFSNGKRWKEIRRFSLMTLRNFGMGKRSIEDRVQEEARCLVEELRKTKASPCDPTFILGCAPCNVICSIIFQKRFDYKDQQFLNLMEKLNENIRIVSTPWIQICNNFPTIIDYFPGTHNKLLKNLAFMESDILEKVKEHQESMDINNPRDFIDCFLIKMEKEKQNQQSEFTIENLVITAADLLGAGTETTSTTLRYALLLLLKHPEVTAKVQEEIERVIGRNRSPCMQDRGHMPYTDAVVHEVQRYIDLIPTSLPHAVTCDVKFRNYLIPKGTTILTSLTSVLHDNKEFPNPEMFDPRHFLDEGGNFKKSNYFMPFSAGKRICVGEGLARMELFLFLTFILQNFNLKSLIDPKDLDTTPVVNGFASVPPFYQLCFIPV
In data set [31] the target is CYP2C9 (Homo sapiens, UniProt P11712). The data set can be described thus: Inhibition of human CYP2C9 in human liver microsome at 10 uM relative to control. Type of data set: ADME. As to conditions: human liver microsomes.
Sequence of CYP2C9 (P11712 whole entry): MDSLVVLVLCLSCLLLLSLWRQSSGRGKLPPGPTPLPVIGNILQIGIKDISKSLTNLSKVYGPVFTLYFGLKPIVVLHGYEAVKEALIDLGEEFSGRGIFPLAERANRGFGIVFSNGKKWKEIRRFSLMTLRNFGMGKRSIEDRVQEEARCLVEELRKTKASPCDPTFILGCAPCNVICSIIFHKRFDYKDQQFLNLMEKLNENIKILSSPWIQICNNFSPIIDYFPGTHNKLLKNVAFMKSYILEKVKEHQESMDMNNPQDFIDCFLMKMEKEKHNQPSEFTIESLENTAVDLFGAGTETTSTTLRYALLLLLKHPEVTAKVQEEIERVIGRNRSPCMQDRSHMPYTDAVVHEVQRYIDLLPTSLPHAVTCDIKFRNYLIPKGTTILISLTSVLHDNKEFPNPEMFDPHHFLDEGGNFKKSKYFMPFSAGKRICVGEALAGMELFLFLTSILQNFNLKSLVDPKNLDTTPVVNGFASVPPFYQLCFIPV

The source made the active and inactive calls. The calls are words filed in the database; no cut-off is given here.

In general, half-life refers to the time in which the quantity being followed falls by half. The AUC(0-t) is the area under the concentration-time curve up to a stated or last time point. The term MRT last denotes a mean duration of stay, worked out from the concentration-time curve. As usually defined, the Tmax is the time from dosing to the highest level. As usually defined, the clearance is a measure of how efficiently the substance is removed, as volume per time. The term bioavailability denotes dose-corrected exposure relative to a reference, in per cent. For orientation: Cmax means the peak of the concentration-time curve. What is called inhibition is the percentage by which the read-out fell short of the control. Turning to `CCOc1cc(-n2c(-c3ccc(-n4ccnc4)cc3)cc3ccc(C(=O)OC)cc32)ccc1C(N)=O`, the half-life in data set [1] was 36 min; in [5], 76.2 min; in data set [18] it was 59.4 min; in data set [23], 158 min. In addition, the AUC(0-t) in [2] is 8.04 µg·h/mL. Further, in [3], the CLint scaled was 0.948 L/h/kg. In addition, in [4], the half-life at 1 µM was 257 min. The outcome in [6], in data set [11], in data set [12], in data set [15], in data set [19] and in data set [25] was Active. The figures for the MRT last in [7], in [10] and in data set [14] were 42.6 min, 47.4 min and 66 min, respectively. Also, the Activity is 12.74% in data set [8], 24.39% in [17] and “Dose-dependent-effect” in [22]. For the same compound, in data set [9], the Tmax amounted to 4.8 min. The permeability result in data set [13] was “Permeable”. In data set [16], this compound gave a clearance of 1.26 L/h/kg. In data set [20], this compound registered a bioavailability of 11.2%. This compound also registered a Cmax in data set [21] of 11.6 µg/mL. Moreover, in data set [24], the inhibition is 16.4%.

Usually IC50 stands for the point on the concentration scale where inhibition reaches its midpoint. `CCOc1cc(-n2c(-c3ccc(-n4ccnc4)cc3)cc3ccc(C(=O)O)cc32)ccc1C(N)=O`: the half-life in [1] was 51 min. The compound also came in with an area under the curve AUC(0-t) in data set [2] of 3.51 µg·h/mL. The IC50 in data set [26] turned out to be 0.0441 µM. In data set [7], this compound registered an MRT last of 63 min. The Tmax in data set [9] came to 19.8 min. For the same compound, the result in data set [12] and in data set [25] was Active. This compound also had a clearance in data set [16] of 2.91 L/h/kg. Further, the inhibition at 10 µM in data set [27] was determined as 81.5%; in [28] it was 59.2%; in data set [29], 16.6%; in data set [30], 70.1%; in data set [31] it was 75%. In [20], this compound showed a bioavailability of 6.64%. The compound also displayed a Cmax in [21] of 2.93 µg/mL. Besides, the inhibition in data set [24] was 95.1%.
